Test results from patent US10344019B2 (priority 2010, dated 2019).
Read-outs that look alike come from different tables or passages of the source.

Key:
Assay in all cases: microbe, parasite or virus in culture
Type in all cases: cell-based
[1] = tested on: HCV 4a Rluc cells (NS5A chimeric genotype 1b Con1 replicon with genotype 4a NS5A gene); conditions: Hepatitis C virus, read-out: 4a
In short: (§1)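 Replicon cells stably carrying the listed RLuc-encoding dicistronic replicons were seeded and treated with DMSO serial dilutions of compound (10 mM stocks) diluted into culture medium. After 72 h, cells were lysed and Renilla luciferase activity measured. EC50 was derived by non-linear regression.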

[2] = tested on: HCV 1b RLuc cells (dicistronic genotype 1b Con1 replicon, RLuc reporter); conditions: Hepatitis C virus, read-out: 1b (nM)
In short: (§2)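 Renilla luciferase HCV replicon cells: dicistronic 1b Con1, 1a H77 or 2a JFH-1 replicons, or a JFH-1 chimera carrying J6 NS5A (M31 present). Compound in DMSO serial dilutions, 72 h incubation, then lysis and luciferase read. EC50 by non-linear regression.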

[3] = tested on: HCV 2a JFH-1 Rluc cells (dicistronic genotype 2a JFH-1 replicon, RLuc reporter); conditions: Hepatitis C virus, genotype 2a JFH-1 replicon, read-out: 2a JFH
In short: as §2

[4] = tested on: HCV 3a RLuc cells (NS5A chimeric genotype 1b Con1 replicon with consensus genotype 3a NS5A gene); conditions: Hepatitis C virus
In short: as §1

[5] = tested on: HCV 1a RLuc cells (dicistronic genotype 1a H77 replicon, RLuc reporter); conditions: Hepatitis C virus, read-out: 1a
In short: as §2

[6] = read-out: 3a, genotype 3a replicon
[7] = read-out: 3a, genotype 3a NS5A chimeric 1b Con1 replicon
[8] = genotype 1a H77 replicon, RLuc reporter
[9] = read-out: 3a, Table 1, genotype 3a NS5A chimeric replicon
[10] = 72 h, Table 1, genotype 1a H77 replicon, 72 hours
[11] = read-out: 3a, Table 2, genotype 3a NS5A chimeric replicon
[12] = 72 h, Table 2, genotype 1a H77 replicon, 72 hours

Compound | EC50 [1] [nM] | EC50 [2] [nM] | EC50 [3] [nM] | EC50 [4, 6] [nM] | EC50 ([5]; genotype 1a replicon) [nM] | EC50 ([3]; RLuc reporter) [nM] | EC50 [4, 7] [nM] | EC50 [5, 8] [nM] | also measured
COC(=O)N[C@H](C(=O)N1CCS[C@H]1c1nc2ccc3cc(-c4ccc(-c5cnc([C@@H]6CCCN6C(=O)[C@@H](NC(=O)OC)C6CCOCC6)[nH]5)cc4)ccc3c2[nH]1)C(C)C [Example 316] | 0.001 to 0.99 | 0.242 | 0.001 to 0.999 | 0.001 to 0.99 | 0.001 to 0.999 |  |  |  | 
COC(=O)N[C@H](C(=O)N1C[C@@H](O)C[C@H]1c1ncc(-c2ccc3cc(-c4ccc(-c5cnc([C@@H]6CCCN6C(=O)[C@H](NC(=O)OC)c6ccccc6)[nH]5)cc4)ccc3c2)[nH]1)C(C)C [Example 223] | 0.001 to 0.99 | 0.022 |  |  |  | 0.001 to 0.999 | 1 to 4.99 | 1 to 44 | 
COC(=O)N[C@H](C(=O)N1[C@@H]2C[C@@H]2C[C@H]1c1nc2ccc3cc(-c4ccc(-c5cnc([C@@H]6[C@H]7CC[C@H](C7)N6C(=O)[C@@H](NC(=O)OC)C6CCOCC6)[nH]5)cc4)ccc3c2[nH]1)C(C)C [Example 335] | 0.001 to 0.99 | 0.027 | 0.001 to 0.999 | 0.001 to 0.99 | 0.001 to 0.999 |  |  |  | 
COC(=O)NC(C(=O)N1CC2(CC2)C[C@H]1c1ncc(-c2ccc3c(c2)C(F)(F)c2cc(-c4ccc(-c5cnc([C@@H]6CCCN6C(=O)[C@@H](NC(=O)OC)C6CCOCC6)[nH]5)cc4)ccc2-3)[nH]1)C(C)C (stereo partly drawn) [Example 207] | 0.001 to 0.99 | 0.017 |  |  |  | 1 to 44 | > 5 | 0.001 to 0.999 | 
COC(=O)N[C@H](C(=O)N1CCC[C@H]1c1ncc(-c2ccc3c4ccc(-c5cnc([C@@H]6CCCN6C(=O)[C@@H](NC(=O)OC)C(C)C)[nH]5)cc4c4nc5ccccc5nc4c3c2)[nH]1)C(C)C [Example 19] | 0.001 to 0.99 |  |  |  |  |  |  |  | EC50 ([2]; 72 h): 0.01 nM; EC50 ([3]; 72 h, Table 1, 72 hours): 1 to 44 nM; EC50 [4, 9]: > 5 nM; EC50 [5, 10]: 1 to 44 nM
COC(=O)N[C@@H](C(=O)N1CCC[C@H]1c1ncc(-c2ccc3c(c2)COc2c-3ccc3cc(-c4cnc([C@@H]5CCCN5C(=O)OCc5ccccc5)[nH]4)ccc23)[nH]1)c1ccccc1 [Example 5] | 0.001 to 0.99 |  |  |  |  |  |  |  | EC50 ([2]; 72 h): 0.037 nM; EC50 ([3]; 72 h, Table 1, 72 hours): 1 to 44 nM; EC50 [4, 9]: 0.001 to 0.99 nM; EC50 [5, 10]: > 44 nM
COC(=O)N[C@@H](C(=O)N1CCC[C@H]1c1ncc(-c2ccc3cc(-c4ccc5c(c4)CCc4nc([C@@H]6CCCN6C(=O)[C@@H](NC(=O)C6CC6)C6CCOCC6)[nH]c4-5)ccc3c2)[nH]1)c1ccccc1 [Example 280] | 0.001 to 0.99 | 0.047 |  |  |  | 1 to 44 | 0.001 to 0.99 | 1 to 44 | 
COC(=O)N[C@H](C(=O)N1[C@@H]2CC[C@@H](C2)[C@H]1c1ncc(-c2ccc(-c3ccc4cc(-c5cnc([C@@H]6CCCN6C(=O)[C@H](NC(=O)OC)c6ccccc6)[nH]5)ccc4c3)cc2)[nH]1)C(C)C [Example 42] | 0.001 to 0.99 |  |  |  |  |  |  |  | EC50 ([2]; 72 h): 0.008 nM; EC50 ([3]; 72 h, Table 2, 72 hours): 0.001 to 0.999 nM; EC50 [4, 11]: 1 to 4.99 nM; EC50 [5, 12]: 0.001 to 0.999 nM
CC#Cc1cc(-c2cnc([C@@H]3[C@H]4CC[C@H](C4)N3C(=O)[C@@H](NC(=O)OC)C3CCOCC3)[nH]2)ccc1-c1ccc2c(ccc3nc([C@@H]4CCCN4C(=O)[C@@H](NC(=O)OC)C(C)C)[nH]c32)c1 [Example 322] | 0.001 to 0.99 | 0.021 | 0.001 to 0.999 | 0.001 to 0.99 | 0.001 to 0.999 |  |  |  | 
CC#Cc1cc(-c2cnc([C@@H]3CCCN3C(=O)[C@@H](NC(=O)OC)C(C)C)[nH]2)ccc1-c1ccc(-c2cnc([C@@H]3CCCN3C(=O)[C@H](NC(=O)OC)c3ccccc3)[nH]2)cc1 [Example 348] | 0.001 to 0.99 | 0.011 | 0.001 to 0.999 | 0.001 to 0.99 | 0.001 to 0.999 |  |  |  | 
COC(=O)N[C@H](C(=O)N1CC(F)(F)C[C@H]1c1ncc(-c2ccc(-c3ccc4cc(-c5cnc([C@@H]6CCCN6C(=O)[C@H](NC(=O)OC)c6ccccc6)[nH]5)ccc4c3)cc2)[nH]1)[C@@H](C)OC [Example 263] | 0.001 to 0.99 | 0.006 |  |  |  | 0.001 to 0.999 | 0.001 to 0.99 | 0.001 to 0.999 | 
COC(=O)N[C@H](C(=O)N1CCCC1c1ncc(-c2cc3c4c(c2)OCc2cc(-c5cnc([C@@H]6CCCN6C(=O)[C@@H](NC(=O)OC)C6CCC6)[nH]5)cc(c2-4)OC3)[nH]1)C1CCC1 (stereo in doubt) [Example 376] | 0.001 to 0.99 | 0.02 | 0.001 to 0.999 | 0.001 to 0.99 | 0.001 to 0.999 |  |  |  | 
COC(=O)N[C@H](C(=O)N1CCC[C@H]1c1nc2c3ccccc3c3cc(-c4ccc(-c5cnc([C@@H]6CCCN6C(=O)[C@@H](NC(=O)OC)[C@@H](C)OC)[nH]5)cc4)ccc3c2[nH]1)C(C)C [Example 301] | 0.001 to 0.99 | 0.019 | 1 to 44 | 1 to 4.99 | 1 to 44 |  |  |  | 
COC(=O)NC(C(=O)N1CCC[C@H]1c1ncc(-c2ccc(-c3ccc4c(ccc5nc([C@@H]6[C@H]7CC[C@H](C7)N6C(=O)[C@@H](NC(=O)OC)C6CCOCC6)[nH]c54)c3)cc2)[nH]1)C(C)C (stereo partly drawn) [Example 67] | 0.001 to 0.99 |  |  |  |  |  |  |  | EC50 ([2]; 72 h): 0.044 nM; EC50 ([3]; 72 h, Table 2, 72 hours): 0.001 to 0.999 nM; EC50 [4, 11]: 1 to 4.99 nM; EC50 [5, 12]: 0.001 to 0.999 nM
COC(=O)N[C@H](C(=O)N1CCC[C@H]1c1nc2ccc3cc(-c4ccc5cc(-c6cnc([C@@H]7COCCN7C(=O)[C@H](NC(=O)OC)c7ccccc7)[nH]6)ccc5c4)ccc3c2[nH]1)C(C)C [Example 216] | 0.001 to 0.99 | 0.006 |  |  |  | 0.001 to 0.999 | 0.001 to 0.99 | 0.001 to 0.999 | 
COC(=O)N[C@H](C(=O)N1CC2(CC2)C[C@H]1c1ncc(-c2ccc3c(c2)C(F)(F)c2cc(-c4ccc5nc([C@@H]6[C@H]7CC[C@H](C7)N6C(=O)[C@H](c6ccccc6)N6CCOCC6)[nH]c5c4)ccc2-3)[nH]1)C(C)C [Example 97] | 0.001 to 0.99 |  |  |  |  |  |  |  | EC50 ([2]; 72 h): 0.009 nM; EC50 ([3]; 72 h, Table 2, 72 hours): 1 to 44 nM; EC50 [4, 11]: > 5 nM; EC50 [5, 12]: 1 to 44 nM
COC(=O)N[C@H](C(=O)N1CCC[C@H]1c1ncc(-c2ccc3cc(-c4ccc(-c5cnc([C@@H]6CCCN6C(=O)[C@@H](NC(=O)OC)C6CCSCC6)[nH]5)cc4)ccc3c2)[nH]1)C(C)C [Example 278] | 0.001 to 0.99 | 0.013 |  |  |  | 0.001 to 0.999 | 1 to 4.99 | 0.001 to 0.999 | 
COC(=O)N[C@H](C(=O)N[C@H](c1nc(-c2ccc3c(c2)C(F)(F)c2cc(-c4ccc5nc([C@@H]6CCCN6C(=O)[C@H](NC(=O)OC)c6ccccc6)[nH]c5c4)ccc2-3)c[nH]1)C(C)C)C(C)C [Example 226] | 0.001 to 0.99 | 0.009 |  |  |  | 1 to 44 | 1 to 4.99 | 1 to 44 | 
COC(=O)NC(C(=O)N1CC2(CC2)C[C@H]1c1ncc(-c2ccc(-c3ccc4cc(-c5cnc([C@@H]6CCCN6C(=O)[C@H](NC(=O)OC)c6ccccc6)[nH]5)ccc4c3)cc2)[nH]1)[C@@H](C)OC (stereo partly drawn) [Example 262] | 0.001 to 0.99 | 0.008 |  |  |  | 0.001 to 0.999 | 0.001 to 0.99 | 0.001 to 0.999 | 
COC(=O)N[C@H](C(=O)N1CCC[C@H]1c1nc2ccc(-c3ccc4c(c3)C(F)(F)c3cc(-c5c[nH]c([C@@H]6CCCN6C(=O)[C@H](NC(=O)OC)c6ccccc6)n5)ccc3-4)cc2[nH]1)C1CCOCC1 [Example 218] | 0.001 to 0.99 | 0.01 |  |  |  | 0.001 to 0.999 | 0.001 to 0.99 | 0.001 to 0.999 | 
COC(=O)N[C@H](C(=O)N1CC2(C[C@H]1c1ncc(-c3ccc4cc(-c5ccc(-c6cnc([C@@H]7CCCN7C(=O)[C@H](NC(=O)OC)c7ccccc7)[nH]6)cc5)ccc4c3)[nH]1)OCCO2)C(C)C [Example 43] | 0.001 to 0.99 |  |  |  |  |  |  |  | EC50 ([2]; 72 h): 0.009 nM; EC50 ([3]; 72 h, Table 2, 72 hours): 0.001 to 0.999 nM; EC50 [4, 11]: 1 to 4.99 nM; EC50 [5, 12]: 0.001 to 0.999 nM
COC(=O)N[C@H](C(=O)N1CCC[C@H]1c1nc2ccc3cc(-c4ccc5c(c4)CCc4nc(C6CC7(CN6C(=O)[C@H](NC(=O)OC)c6ccccc6)OCCO7)[nH]c4-5)ccc3c2[nH]1)C(C)C (stereo partly drawn) [Example 369] | 0.001 to 0.99 | 0.047 | 0.001 to 0.999 | 0.001 to 0.99 | 0.001 to 0.999 |  |  |  | 
COC(=O)N[C@H](C(=O)N1CCC[C@H]1c1ncc(-c2ccc3c(c2F)COc2c-3ccc(-c3cnc([C@@H]4CCCN4C(=O)[C@@H](NC(=O)OC)C(C)C)[nH]3)c2F)[nH]1)C(C)C [Example 330] | 0.001 to 0.99 | 0.006 | 0.001 to 0.999 | 0.001 to 0.99 | 0.001 to 0.999 |  |  |  | 
COC(=O)N[C@H](C(=O)N1CCC[C@H]1c1nc2ccc3cc(-c4ccc5c(c4)CCc4nc([C@@H]6[C@H]7CC[C@H](C7)N6C(=O)[C@@H](NC(=O)OC)[C@@H](C)OC)[nH]c4-5)ccc3c2[nH]1)C(C)C [Example 88] | 0.001 to 0.99 |  |  |  |  |  |  |  | EC50 ([2]; 72 h): 0.019 nM; EC50 ([3]; 72 h, Table 2, 72 hours): 0.001 to 0.999 nM; EC50 [4, 11]: 0.001 to 0.99 nM; EC50 [5, 12]: 0.001 to 0.999 nM
